These results are taken from article PMC12217109, “Development of novel benzamide class I selective lysine deacetylase inhibitors as potent anticancer agents” (Journal of Enzyme Inhibition and Medicinal Chemistry, 2025).

The IC50 is the midpoint of a concentration-inhibition curve. In general, MTD refers to the largest dose that counted as tolerated.

“Also recorded” adds a separate entry of the source. Some results are limits rather than exact numbers.

For one data set, the target named is HDAC4 (Homo sapiens, UniProt P56524). The data set is described as follows: Inhibition of individual recombinant KDACs.
A short description of data set [1]: Maximum tolerated dose evaluation in nude mice. The data set is classed as in vivo. The text has this: (§1) Female CD-1 (Crl:CD1-Foxn1^nu) immunodeficient nude mice aged 6–12 weeks were used (Charles River, Margate UK). Mice were kept in stainless steel cages housed in isolation cabinets in an air-conditioned room with regular alternating cycles of light and darkness, receiving Teklad 2018 diet (Envigo, Blackthorn, UK) and water ad libitum. Before experimentation, all mice were allowed to acclimatise for one week to their environment. Environmental enrichment was provided in the form of Perspex “mouse houses”, chewing blocks and exercise wheels.
For evaluation of the maximum tolerated dose (MTD), two mice were treated at each of the three dose levels evaluated ([…]). […] Mice were observed daily for signs of deleterious effects and bodyweight measured frequently. […] If no deleterious effects were seen after at least 14 days of study, then the animals were euthanised by isoflurane anaesthesia followed by cervical dislocation, and the dose considered non-toxic.

Data set [2] has as its system A2780 human ovarian tumour xenograft. The data set is described as follows: A2780 human ovarian tumour xenograft efficacy study. The data set is classed as in vivo, mice. The note with it: 100 mg/kg i.p. days 0–4 and 7–11.
Text: as §1
To assess in vivo compound efficacy, mice were implanted subcutaneously in the abdominal flanks with 2–3 mm^3 -fragments of A2780 human ovarian tumour xenograft tumours, whilst under brief general inhalation anaesthesia (2% isoflurane). Treatments were initiated when tumours reached approximately 32 mm^3 and mice randomly assigned to cohorts (Twelve mice; n = 6 per group). […] Tumour volume, via calliper measurements, and body weight were assessed daily from initiation of treatment. The cut-off points for in-study termination being a > 15% body weight loss over a 72-h period and the tumour not exceeding 15 mm in the longest diameter. All mice were euthanised by isoflurane anaesthesia followed by cervical dislocation […]
For orientation: Xenograft models place foreign cells or tissue in a host animal.

For data set [3], the system named is hyperacetylated Histone H4. Briefly: Western blot of histone H4 hyperacetylation in A2780 cells. Type of data set: cell-based, human. The note with it: A2780, 10 µM, 2, 4, 16 hrs. Here is the method:
Cells were then washed with ice-cold phosphate buffered saline (PBS) and lysed and sonicated in RIPA buffer [150 mM NaCl, 50 mM TrisHCl pH 7.4, 5 mM EDTA, 1% NP40, 0.1% SDS, 1 mM phenylmethylsulphonyl fluoride (PMSF) and proteinase inhibitor cocktail (1x)]. Cellular debris was removed by centrifugation (12,000 × g for 20 min, 4 °C) and protein concentration of the supernatants determined by Bradford Assay. Proteins (30 μg protein per lane) were resolved by SDS-PAGE, then transferred to the PVDF membrane (Hybond-P; Amersham, UK). For band size determination, Amersham Full-Range Rainbow™ Molecular Weight Markers (#RPN800) were loaded adjacent to the proteins within the gel. Non-specific protein binding on the PVDF membrane was blocked using 5% non-fat milk powder and the membranes probed separately with either anti-hyperacetylated Histone H4 (Penta) antibody (Upstate Biotechnology, USA), acetylated tubulin or β-actin antibodies (Sigma-Aldrich, UK). This was followed by incubation with horseradish peroxidase (HRP)-conjugated secondary antibodies (Dako, USA), with immunoreactive bands detected by enhanced chemiluminescence (ECL Plus detection kit; Amersham, UK).
(A western blot detects proteins with antibodies after separation by electrophoresis.)

The next data set addresses HDAC2 (Homo sapiens, UniProt Q92769). The data set is described as follows: Inhibition of individual recombinant KDACs.
In another data set the test system is leukemic cell lines. The data set is described as follows: NCI-60 cytotoxicity screen, leukaemic cell lines. Type of data set: cell-based. The note with it: Homo sapiens; NCI-60, range over cell lines; read-out: cytotoxicity IC50 against leukemic cell lines. The text has this:
Compounds 3–7 were submitted to the US National Cancer Institute (NIH, Bethesda, Maryland) for screening against the NCI-60 panel of human cancer cell lines, as per standard protocol.

In another data set the target is HDAC10 (Homo sapiens, UniProt Q969S8). The data set is described as follows: Inhibition of individual recombinant KDACs.
In another data set the target is HDAC6 (Homo sapiens, UniProt Q9UBN7). The data set is described as follows: Inhibition of individual recombinant KDACs.
The next data set concerns the target HDAC5 (Homo sapiens, UniProt Q9UQL6). The data set is described as follows: Inhibition of individual recombinant KDACs.

Chain of HDAC4 (P56524 whole entry): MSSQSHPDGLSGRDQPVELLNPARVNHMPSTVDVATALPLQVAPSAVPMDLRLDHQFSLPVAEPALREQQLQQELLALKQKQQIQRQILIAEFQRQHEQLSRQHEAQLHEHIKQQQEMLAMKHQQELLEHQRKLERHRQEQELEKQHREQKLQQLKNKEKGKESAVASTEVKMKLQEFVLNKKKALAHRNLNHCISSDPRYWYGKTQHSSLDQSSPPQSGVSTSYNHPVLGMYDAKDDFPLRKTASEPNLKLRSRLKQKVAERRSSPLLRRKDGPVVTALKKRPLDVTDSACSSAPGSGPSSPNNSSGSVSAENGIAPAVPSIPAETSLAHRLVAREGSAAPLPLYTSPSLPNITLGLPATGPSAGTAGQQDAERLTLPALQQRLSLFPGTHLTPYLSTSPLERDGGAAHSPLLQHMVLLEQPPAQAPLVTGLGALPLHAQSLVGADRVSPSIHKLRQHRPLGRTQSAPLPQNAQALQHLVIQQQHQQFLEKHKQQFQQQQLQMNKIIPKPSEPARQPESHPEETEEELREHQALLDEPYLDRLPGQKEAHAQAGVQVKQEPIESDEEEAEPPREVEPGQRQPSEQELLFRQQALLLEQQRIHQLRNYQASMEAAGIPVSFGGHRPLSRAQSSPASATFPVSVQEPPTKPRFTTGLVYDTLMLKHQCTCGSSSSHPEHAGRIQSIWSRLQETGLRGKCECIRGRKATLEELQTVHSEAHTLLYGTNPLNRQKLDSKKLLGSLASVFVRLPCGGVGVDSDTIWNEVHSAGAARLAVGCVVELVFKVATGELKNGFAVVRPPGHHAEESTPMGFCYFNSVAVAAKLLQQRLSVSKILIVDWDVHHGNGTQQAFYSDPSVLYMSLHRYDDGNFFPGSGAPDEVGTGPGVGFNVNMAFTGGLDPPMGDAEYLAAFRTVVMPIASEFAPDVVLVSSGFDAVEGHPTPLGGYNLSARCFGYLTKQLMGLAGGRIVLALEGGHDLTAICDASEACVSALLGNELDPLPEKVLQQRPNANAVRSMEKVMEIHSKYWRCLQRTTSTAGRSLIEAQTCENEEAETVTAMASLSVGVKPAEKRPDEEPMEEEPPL
Chain of HDAC6 (Q9UBN7 whole entry): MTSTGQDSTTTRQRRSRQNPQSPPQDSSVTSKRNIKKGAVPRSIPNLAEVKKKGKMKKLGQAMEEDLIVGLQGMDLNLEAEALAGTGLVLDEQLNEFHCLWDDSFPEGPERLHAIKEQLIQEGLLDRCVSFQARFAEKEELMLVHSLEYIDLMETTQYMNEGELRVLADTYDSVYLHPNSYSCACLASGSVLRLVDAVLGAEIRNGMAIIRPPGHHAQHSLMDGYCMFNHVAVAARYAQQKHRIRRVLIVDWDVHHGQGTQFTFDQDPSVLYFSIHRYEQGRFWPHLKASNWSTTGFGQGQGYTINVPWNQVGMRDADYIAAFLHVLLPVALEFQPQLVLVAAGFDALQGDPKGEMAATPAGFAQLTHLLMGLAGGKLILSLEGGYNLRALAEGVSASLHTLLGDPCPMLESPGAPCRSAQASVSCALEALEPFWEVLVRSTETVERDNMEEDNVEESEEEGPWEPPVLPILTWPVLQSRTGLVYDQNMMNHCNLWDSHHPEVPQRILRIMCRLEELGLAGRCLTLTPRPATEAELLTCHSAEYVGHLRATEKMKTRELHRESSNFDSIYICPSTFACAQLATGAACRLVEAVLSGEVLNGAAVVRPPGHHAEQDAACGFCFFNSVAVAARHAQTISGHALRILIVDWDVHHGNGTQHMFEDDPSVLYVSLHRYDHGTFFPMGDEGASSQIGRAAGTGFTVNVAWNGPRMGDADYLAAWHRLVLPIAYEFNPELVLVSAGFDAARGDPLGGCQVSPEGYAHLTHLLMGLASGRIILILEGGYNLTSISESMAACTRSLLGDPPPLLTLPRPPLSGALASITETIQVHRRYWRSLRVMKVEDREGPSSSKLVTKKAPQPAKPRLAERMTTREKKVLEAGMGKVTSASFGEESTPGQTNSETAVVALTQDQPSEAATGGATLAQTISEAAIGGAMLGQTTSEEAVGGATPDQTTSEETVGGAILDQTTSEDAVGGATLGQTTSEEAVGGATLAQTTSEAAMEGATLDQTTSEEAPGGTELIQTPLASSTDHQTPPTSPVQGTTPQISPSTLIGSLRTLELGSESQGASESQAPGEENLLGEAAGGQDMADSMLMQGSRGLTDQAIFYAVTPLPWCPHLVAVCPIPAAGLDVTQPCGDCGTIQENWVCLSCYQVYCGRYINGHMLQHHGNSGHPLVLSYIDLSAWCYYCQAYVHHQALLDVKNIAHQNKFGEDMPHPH
Chain of HDAC10 (Q969S8 whole entry): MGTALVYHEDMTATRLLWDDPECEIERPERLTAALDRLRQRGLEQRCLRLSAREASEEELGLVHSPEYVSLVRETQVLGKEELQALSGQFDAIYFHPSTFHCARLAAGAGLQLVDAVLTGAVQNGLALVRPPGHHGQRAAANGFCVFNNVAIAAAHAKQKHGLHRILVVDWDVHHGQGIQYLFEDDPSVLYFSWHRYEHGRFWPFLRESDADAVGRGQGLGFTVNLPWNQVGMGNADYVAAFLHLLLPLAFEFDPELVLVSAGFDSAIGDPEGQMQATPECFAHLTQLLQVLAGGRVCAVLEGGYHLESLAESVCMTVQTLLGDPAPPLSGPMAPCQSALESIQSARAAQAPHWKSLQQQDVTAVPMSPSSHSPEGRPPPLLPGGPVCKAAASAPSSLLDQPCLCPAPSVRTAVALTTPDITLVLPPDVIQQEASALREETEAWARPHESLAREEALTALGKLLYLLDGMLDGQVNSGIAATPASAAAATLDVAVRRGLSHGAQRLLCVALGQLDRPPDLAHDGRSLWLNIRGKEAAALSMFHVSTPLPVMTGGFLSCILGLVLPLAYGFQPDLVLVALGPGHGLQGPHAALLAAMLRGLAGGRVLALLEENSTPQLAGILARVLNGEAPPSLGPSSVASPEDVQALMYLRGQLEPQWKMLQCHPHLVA
Chain of HDAC5 (Q9UQL6 whole entry): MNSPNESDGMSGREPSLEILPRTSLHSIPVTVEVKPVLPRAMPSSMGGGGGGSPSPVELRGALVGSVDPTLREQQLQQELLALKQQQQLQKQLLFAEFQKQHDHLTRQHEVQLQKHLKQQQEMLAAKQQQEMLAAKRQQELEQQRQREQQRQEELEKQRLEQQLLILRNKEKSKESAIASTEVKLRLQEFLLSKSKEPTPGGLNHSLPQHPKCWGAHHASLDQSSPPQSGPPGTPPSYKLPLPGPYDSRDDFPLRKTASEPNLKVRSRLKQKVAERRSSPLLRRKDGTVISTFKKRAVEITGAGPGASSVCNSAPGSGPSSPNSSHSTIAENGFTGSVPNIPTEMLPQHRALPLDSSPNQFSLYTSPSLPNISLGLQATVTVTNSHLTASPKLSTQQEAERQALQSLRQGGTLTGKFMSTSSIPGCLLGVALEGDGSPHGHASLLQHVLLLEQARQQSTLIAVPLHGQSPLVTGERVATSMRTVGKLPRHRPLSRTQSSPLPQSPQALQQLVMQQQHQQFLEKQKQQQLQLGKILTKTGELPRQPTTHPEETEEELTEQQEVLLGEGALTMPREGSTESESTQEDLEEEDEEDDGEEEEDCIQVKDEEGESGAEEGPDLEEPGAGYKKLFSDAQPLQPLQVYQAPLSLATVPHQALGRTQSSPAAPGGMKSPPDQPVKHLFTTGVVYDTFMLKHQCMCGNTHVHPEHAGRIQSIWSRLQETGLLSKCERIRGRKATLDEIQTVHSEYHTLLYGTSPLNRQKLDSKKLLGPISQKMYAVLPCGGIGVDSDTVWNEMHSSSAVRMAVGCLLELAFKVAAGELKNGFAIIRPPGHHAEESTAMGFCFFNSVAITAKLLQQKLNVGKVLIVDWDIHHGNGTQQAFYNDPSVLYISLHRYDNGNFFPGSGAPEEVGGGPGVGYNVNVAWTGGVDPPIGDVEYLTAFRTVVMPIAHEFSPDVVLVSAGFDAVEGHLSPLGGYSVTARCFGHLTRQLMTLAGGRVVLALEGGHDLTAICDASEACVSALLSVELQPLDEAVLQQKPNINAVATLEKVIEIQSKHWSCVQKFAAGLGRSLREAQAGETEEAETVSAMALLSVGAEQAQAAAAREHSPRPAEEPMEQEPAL
Chain of HDAC2 (Q92769 whole entry): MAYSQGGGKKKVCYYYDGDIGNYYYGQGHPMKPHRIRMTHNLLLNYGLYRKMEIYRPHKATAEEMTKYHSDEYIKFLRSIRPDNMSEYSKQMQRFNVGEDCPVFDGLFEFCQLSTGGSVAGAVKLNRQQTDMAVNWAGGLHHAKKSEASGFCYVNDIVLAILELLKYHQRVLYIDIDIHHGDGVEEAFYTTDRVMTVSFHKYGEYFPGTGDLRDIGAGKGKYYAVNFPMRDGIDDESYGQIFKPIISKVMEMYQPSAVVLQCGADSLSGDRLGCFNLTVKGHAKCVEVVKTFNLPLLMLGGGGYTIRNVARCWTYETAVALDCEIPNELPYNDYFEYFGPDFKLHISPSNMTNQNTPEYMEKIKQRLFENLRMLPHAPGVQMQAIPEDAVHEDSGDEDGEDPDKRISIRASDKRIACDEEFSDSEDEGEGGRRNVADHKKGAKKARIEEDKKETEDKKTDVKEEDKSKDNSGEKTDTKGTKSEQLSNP

On to `C=C(CN1CCN(c2cccc(C(F)(F)F)n2)CC1)c1ccc(C(=O)Nc2ccccc2N)cc1` [Compound 7, N-(2-aminophenyl)-4–(3-(4–(6-(trifluoromethyl)pyridin-2-yl)piperazin-1-yl)prop-1-en-2-yl)benzamide], for which the IC50 is over 10 µM at HDAC4; 3.97 µM on HDAC2; 0.28 to 0.86 µM in the data set with leukemic cell lines; over 10 µM at HDAC10; over 10 µM on HDAC6; over 10 µM on HDAC5. Further, the systemic toxicity result in data set [1] (100 mg/kg i.p., 5 consecutive days) is given as “No systemic toxicity”. Moreover, the maximum tolerated dose (MTD) in [1] (female, CD-1 nude (Crl:CD1-Foxn1^nu), mouse, in vivo, ip, single dose on 5 consecutive days) was determined as 100 mg/kg. In [2], the “weight loss / toxicity during treatment” value is on record as “No significant weight loss or overt toxicity; also recorded: did not induce significant weight loss or detrimental toxicity”. In addition, the “histone H4 hyperacetylation (western blotting)” value in [3] was “Time dependent increase in Histone H4 acetylation; also recorded: time-dependent increase in histone H4 hyperacetylation”.
